Source: publication PMC3681751, “Identification of a Novel Antimicrobial Peptide from Human Hepatitis B Virus Core Protein Arginine-Rich Domain (ARD)” (PLoS Pathogens, 2013)
Read-outs that look alike come from different tables or passages of the source. Residues, ends and D or L forms follow the SMILES beside them.

What was measured:
[1] = system: P. aeruginosa (ATCC 9027); assay type: cell-based, Pseudomonas aeruginosa; conditions: for MBC against P. aeruginosa: summary over the P. aeruginosa strains of Table 1 (ATCC 9027, ATCC 27853)
Description: (§1) The antimicrobial activities of HBc ARD peptides were tested using a number of bacterial strains from ATCC, including Pseudomonas aeruginosa Migula strain (ATCC 27853, ampicillin-resistant), Pseudomonas aeruginosa Migula strain (ATCC 9027, ampicillin-resistant), Klebsiella pneumoniae strain (ATCC 17593), Escherichia coli strain (ATCC 25922), Staphylococcus aureus subsp. strain (ATCC 25923, methicillin-resistant), Staphylococcus aureus subsp. strain (ATCC 29213, methicillin-resistant), Staphylococcus aureus subsp. strain (ATCC 19636, methicillinresistant), and Candida albicans strain (ATCC 10231).
(§2) All peptides were purchased from Yao-Hong Biotechnology Inc. (Taipei, Taiwan). Vendors provided data of peptide characterizations, including HPLC and Mass (data not shown). Antimicrobial activity was determined as described with some modifications as detailed below. Bacteria were grown overnight in Mueller–Hinton broth (Difco) at 37°C, and during the mid-logarithmic phase, bacteria were diluted to 10^6 CFU (colony formation unit)/ml in phosphate buffer (10 mM sodium phosphate and 50 mM sodium chloride, pH 7.2). Peptides were serially diluted in the same buffer. Fifty microliter (µl) of bacteria was mixed with fifty µl of peptides at varying concentrations followed by incubation at 37°C for 3 hours without shaking. At the end of incubation, bacteria were placed on Mueller-Hinton broth agar plates, and allowed growth at 37°C overnight for measurement of minimal bactericidal concentration (MBC). […] All peptides were tested in triplicate.

[2] = system: P. aeruginosa (ATCC 27853); assay type: cell-based, Pseudomonas aeruginosa
Description: as §1, §2

[3] = system: K. pneumonia (ATCC 13884); assay type: cell-based, Klebsiella pneumoniae
E. coli (ATCC 25922) = assay type: cell-based, Escherichia coli; conditions: 3 h at 37°C in phosphate buffer pH 7.2; triplicate
Description: as §1, §2

[4] = ampicillin-resistant strain, 3 h at 37°C in phosphate buffer pH 7.2, triplicate
[5] = 3 h at 37°C in phosphate buffer pH 7.2, triplicate

SMILES | Antimicrobial activity, MBC ([1]; ATCC 9027, 3 h, pH 7.2) | Antimicrobial activity, MBC [1, 4] | Antimicrobial activity, MBC ([2]; ATCC 27853, 3 h, pH 7.2) | Antimicrobial activity, MBC [2, 4] | Antimicrobial activity, MBC [3, 5] | Antimicrobial activity, MBC (E. coli (ATCC 25922)) | MBC against P. aeruginosa [1] | Antimicrobial activity, MBC ([3]; ATCC 13884, 3 h, pH 7.2)
CC(C)[C@H](NC(=O)[C@@H](NC(=O)[C@@H](N)[C@@H](C)O)C(C)C)C(=O)N[C@@H](CCCNC(=N)N)C(=O)N[C@@H](CCCNC(=N)N)C(=O)N[C@@H](CCCNC(=N)N)C(=O)NCC(=O)N[C@@H](CCCNC(=N)N)C(=O)N[C@@H](CO)C(=O)N1CCC[C@H]1C(=O)N[C@@H](CCCNC(=N)N)C(=O)N[C@@H](CCCNC(=N)N)C(=O)N[C@@H](CCCNC(=N)N)C(=O)N[C@H](C(=O)N1CCC[C@H]1C(=O)N[C@@H](CO)C(=O)N1CCC[C@H]1C(=O)N[C@@H](CCCNC(=N)N)C(=O)N[C@@H](CCCNC(=N)N)C(=O)N[C@@H](CCCNC(=N)N)C(=O)N[C@@H](CCCNC(=N)N)C(=O)O)[C@@H](C)O [HBc147-167] (H-TVVRRRGRSPRRRTPSPRRRR-OH; N-terminus and C-terminus assumed) | > 32 µM | > 85 µg/mL | > 32 µM | > 85 µg/mL | 21.3 µg/mL | > 85 µg/mL | – | –
C[C@@H](O)[C@H](NC(=O)[C@H](CCCNC(=N)N)NC(=O)[C@H](CCCNC(=N)N)NC(=O)[C@H](CCCNC(=N)N)NC(=O)[C@@H]1CCCN1C(=O)[C@H](CO)NC(=O)[C@H](CCCNC(=N)N)NC(=O)CN)C(=O)N1CCC[C@H]1C(=O)N[C@@H](CO)C(=O)N1CCC[C@H]1C(=O)N[C@@H](CCCNC(=N)N)C(=O)N[C@@H](CCCNC(=N)N)C(=O)N[C@@H](CCCNC(=N)N)C(=O)N[C@@H](CCCNC(=N)N)C(=O)N[C@@H](CO)C(=O)N[C@@H](CCC(N)=O)C(=O)N[C@@H](CO)C(=O)N1CCC[C@H]1C(=O)N[C@@H](CCCNC(=N)N)C(=O)N[C@@H](CCCNC(=N)N)C(=O)N[C@@H](CCCNC(=N)N)C(=O)N[C@@H](CCCNC(=N)N)C(=O)O [HBc153-175] (H-GRSPRRRTPSPRRRRSQSPRRRR-OH; N-terminus and C-terminus assumed) | 2 µM | 5.8 µg/mL | 2 µM | 5.8 µg/mL | 93.28 µg/mL | 46.64 µg/mL | strong activity | > 32 µM
C[C@@H](O)[C@H](NC(=O)[C@H](CCCNC(=N)N)NC(=O)[C@H](CCCNC(=N)N)NC(=O)[C@H](CCCNC(=N)N)NC(=O)[C@@H]1CCCN1C(=O)[C@@H](N)CO)C(=O)N1CCC[C@H]1C(=O)N[C@@H](CO)C(=O)N1CCC[C@H]1C(=O)N[C@@H](CCCNC(=N)N)C(=O)N[C@@H](CCCNC(=N)N)C(=O)N[C@@H](CCCNC(=N)N)C(=O)N[C@@H](CCCNC(=N)N)C(=O)N[C@@H](CO)C(=O)N[C@@H](CCC(N)=O)C(=O)N[C@@H](CO)C(=O)N1CCC[C@H]1C(=O)N[C@@H](CCCNC(=N)N)C(=O)N[C@@H](CCCNC(=N)N)C(=O)N[C@@H](CCCNC(=N)N)C(=O)N[C@@H](CCCNC(=N)N)C(=O)O [HBc155-175] (H-SPRRRTPSPRRRRSQSPRRRR-OH; N-terminus and C-terminus assumed) | 2 µM | 5.4 µg/mL | 16 µM | 43.23 µg/mL | > 86.46 µg/mL | > 86.46 µg/mL | strong activity | > 32 µM
